Test results as given in paper PMC10008561 (Nature Communications, 2023).
Where “and” joins values, the source holds several entries; their conditions need not be identical. Equal values may be shown once.

Experiments:
Test in all cases: cell-based
human KOR (GoA) [1] = biological target: T1, human KOR (GoA) (Homo sapiens, UniProt P41145)
T1 construct: expressed in transfected cells; host or cells: HEK293T

human KOR (GoA) [2] = biological target: T2, human KOR (GoA) (Homo sapiens, UniProt P41145, D105A)
T2 construct: expressed in transfected cells; host or cells: HEK293T

human KOR (GoA) [3] = biological target: T3, human KOR (GoA) (Homo sapiens, UniProt P41145, D155A)
T3 construct: expressed in transfected cells; host or cells: HEK293T

human KOR (GoA) [4] = biological target: T4, human KOR (GoA) (Homo sapiens, UniProt P41145, D266A)
T4 construct: expressed in transfected cells; host or cells: HEK293T

human KOR (GoA) [5] = biological target: T5, human KOR (GoA) (Homo sapiens, UniProt P41145, D334A)
T5 construct: expressed in transfected cells; host or cells: HEK293T

human KOR (GoA) [6] = biological target: T6, human KOR (GoA) (Homo sapiens, UniProt P41145, E297A)
T6 construct: expressed in transfected cells; host or cells: HEK293T

human KOR (GoA) [7] = biological target: T7, human KOR (GoA) (Homo sapiens, UniProt P41145, F114L)
T7 construct: expressed in transfected cells; host or cells: HEK293T

human KOR (GoA) [8] = biological target: T8, human KOR (GoA) (Homo sapiens, UniProt P41145, F283A)
T8 construct: expressed in transfected cells; host or cells: HEK293T

human KOR (GoA) [9] = biological target: T9, human KOR (GoA) (Homo sapiens, UniProt P41145, G319L)
T9 construct: expressed in transfected cells; host or cells: HEK293T

human KOR (GoA) [10] = biological target: T10, human KOR (GoA) (Homo sapiens, UniProt P41145, K200A)
T10 construct: expressed in transfected cells; host or cells: HEK293T

human KOR (GoA) [11] = biological target: T11, human KOR (GoA) (Homo sapiens, UniProt P41145, K227A)
T11 construct: expressed in transfected cells; host or cells: HEK293T

human KOR (GoA) [12] = biological target: T12, human KOR (GoA) (Homo sapiens, UniProt P41145, L253A); conditions: HEK-293T
T12 construct: expressed in transfected cells; host or cells: HEK293T

human KOR (GoA) [13] = biological target: T13, human KOR (GoA) (Homo sapiens, UniProt P41145, N141A)
T13 construct: expressed in transfected cells; host or cells: HEK293T

human KOR (GoA) [14] = biological target: T14, human KOR (GoA) (Homo sapiens, UniProt P41145, N322A)
T14 construct: expressed in transfected cells; host or cells: HEK293T

human KOR (GoA) [15] = biological target: T15, human KOR (GoA) (Homo sapiens, UniProt P41145, N326A)
T15 construct: expressed in transfected cells; host or cells: HEK293T

human KOR (GoA) [16] = biological target: T16, human KOR (GoA) (Homo sapiens, UniProt P41145, Q115N)
T16 construct: expressed in transfected cells; host or cells: HEK293T

human KOR (GoA) [17] = biological target: T17, human KOR (GoA) (Homo sapiens, UniProt P41145, R170A)
T17 construct: expressed in transfected cells; host or cells: HEK293T

human KOR (GoA) [18] = biological target: T18, human KOR (GoA) (Homo sapiens, UniProt P41145, R257A)
T18 construct: expressed in transfected cells; host or cells: HEK293T

human KOR (GoA) [19] = biological target: T19, human KOR (GoA) (Homo sapiens, UniProt P41145, R271A)
T19 construct: expressed in transfected cells; host or cells: HEK293T

human KOR (GoA) [20] = biological target: T20, human KOR (GoA) (Homo sapiens, UniProt P41145, R274A)
T20 construct: expressed in transfected cells; host or cells: HEK293T

human KOR (GoA) [21] = biological target: T21, human KOR (GoA) (Homo sapiens, UniProt P41145, T94V)
T21 construct: expressed in transfected cells; host or cells: HEK293T

human KOR (GoA) [22] = biological target: T22, human KOR (GoA) (Homo sapiens, UniProt P41145, Y139L)
T22 construct: expressed in transfected cells; host or cells: HEK293T

human KOR (GoA) [23] = biological target: T23, human KOR (GoA) (Homo sapiens, UniProt P41145, Y320L); conditions: HEK-293T
T23 construct: expressed in transfected cells; host or cells: HEK293T

human KOR (GoB) [24] = biological target: T24, human KOR (GoB) (Homo sapiens, UniProt P41145, D155A); conditions: HEK-293T
T24 construct: expressed in transfected cells; host or cells: HEK293T

human KOR (GoB) [25] = biological target: T25, human KOR (GoB) (Homo sapiens, UniProt P41145, K200A); conditions: HEK-293T
T25 construct: expressed in transfected cells; host or cells: HEK293T

human KOR (GoB) [26] = biological target: T26, human KOR (GoB) (Homo sapiens, UniProt P41145, K227A); conditions: HEK-293T
T26 construct: expressed in transfected cells; host or cells: HEK293T

human KOR (GoB) [27] = biological target: T27, human KOR (GoB) (Homo sapiens, UniProt P41145, Q115N); conditions: HEK-293T
T27 construct: expressed in transfected cells; host or cells: HEK293T

human KOR (Gustducin) [28] = biological target: T28, human KOR (Gustducin) (Homo sapiens, UniProt P41145)
T28 construct: expressed in transfected cells; host or cells: HEK293T

human KOR (Gustducin) [29] = biological target: T29, human KOR (Gustducin) (Homo sapiens, UniProt P41145, D105A); conditions: HEK-293T
T29 construct: expressed in transfected cells; host or cells: HEK293T

human KOR (Gustducin) [30] = biological target: T30, human KOR (Gustducin) (Homo sapiens, UniProt P41145, D334A); conditions: HEK-293T
T30 construct: expressed in transfected cells; host or cells: HEK293T

human KOR (Gustducin) [31] = biological target: T31, human KOR (Gustducin) (Homo sapiens, UniProt P41145, E297A); conditions: HEK-293T
T31 construct: expressed in transfected cells; host or cells: HEK293T

human KOR (Gustducin) [32] = biological target: T32, human KOR (Gustducin) (Homo sapiens, UniProt P41145, K200A); conditions: HEK-293T
T32 construct: expressed in transfected cells; host or cells: HEK293T

human KOR (Gustducin) [33] = biological target: T33, human KOR (Gustducin) (Homo sapiens, UniProt P41145, L253A); conditions: HEK-293T
T33 construct: expressed in transfected cells; host or cells: HEK293T

human KOR (Gustducin) [34] = biological target: T34, human KOR (Gustducin) (Homo sapiens, UniProt P41145, N141A); conditions: HEK-293T
T34 construct: expressed in transfected cells; host or cells: HEK293T

human KOR (Gustducin) [35] = biological target: T35, human KOR (Gustducin) (Homo sapiens, UniProt P41145, Q115N); conditions: HEK-293T
T35 construct: expressed in transfected cells; host or cells: HEK293T
T35 sequence (P41145 whole entry Q115N): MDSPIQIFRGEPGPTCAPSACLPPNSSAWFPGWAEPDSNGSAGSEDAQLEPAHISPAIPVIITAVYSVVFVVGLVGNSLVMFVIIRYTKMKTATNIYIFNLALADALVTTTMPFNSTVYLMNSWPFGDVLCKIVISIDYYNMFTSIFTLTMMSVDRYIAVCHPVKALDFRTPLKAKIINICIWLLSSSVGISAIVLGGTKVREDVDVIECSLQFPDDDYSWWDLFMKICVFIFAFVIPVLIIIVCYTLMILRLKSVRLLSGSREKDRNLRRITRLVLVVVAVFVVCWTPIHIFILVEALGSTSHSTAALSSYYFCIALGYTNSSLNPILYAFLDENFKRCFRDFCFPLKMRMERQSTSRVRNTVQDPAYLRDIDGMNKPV

T17 sequence (P41145 whole entry R170A): as the sequence (P41145 whole entry Q115N) above, with N115Q, R170A counted along it
T1 sequence (P41145 whole entry): as the sequence (P41145 whole entry Q115N) above, with N115Q counted along it
T3 sequence (P41145 whole entry D155A): as the sequence (P41145 whole entry Q115N) above, with N115Q, D155A counted along it
T18 sequence (P41145 whole entry R257A): as the sequence (P41145 whole entry Q115N) above, with N115Q, R257A counted along it
T10 sequence (P41145 whole entry K200A): as the sequence (P41145 whole entry Q115N) above, with N115Q, K200A counted along it
T15 sequence (P41145 whole entry N326A): as the sequence (P41145 whole entry Q115N) above, with N115Q, N326A counted along it
T4 sequence (P41145 whole entry D266A): as the sequence (P41145 whole entry Q115N) above, with N115Q, D266A counted along it
T28 sequence (P41145 whole entry): as the sequence (P41145 whole entry Q115N) above, with N115Q counted along it
T8 sequence (P41145 whole entry F283A): as the sequence (P41145 whole entry Q115N) above, with N115Q, F283A counted along it
T7 sequence (P41145 whole entry F114L): as the sequence (P41145 whole entry Q115N) above, with F114L, N115Q counted along it
T13 sequence (P41145 whole entry N141A): as the sequence (P41145 whole entry Q115N) above, with N115Q, N141A counted along it
T19 sequence (P41145 whole entry R271A): as the sequence (P41145 whole entry Q115N) above, with N115Q, R271A counted along it
T11 sequence (P41145 whole entry K227A): as the sequence (P41145 whole entry Q115N) above, with N115Q, K227A counted along it
T16 sequence (P41145 whole entry Q115N): as the sequence (P41145 whole entry Q115N) above
T5 sequence (P41145 whole entry D334A): as the sequence (P41145 whole entry Q115N) above, with N115Q, D334A counted along it
T9 sequence (P41145 whole entry G319L): as the sequence (P41145 whole entry Q115N) above, with N115Q, G319L counted along it
T6 sequence (P41145 whole entry E297A): as the sequence (P41145 whole entry Q115N) above, with N115Q, E297A counted along it
T20 sequence (P41145 whole entry R274A): as the sequence (P41145 whole entry Q115N) above, with N115Q, R274A counted along it
T14 sequence (P41145 whole entry N322A): as the sequence (P41145 whole entry Q115N) above, with N115Q, N322A counted along it
T21 sequence (P41145 whole entry T94V): as the sequence (P41145 whole entry Q115N) above, with T94V, N115Q counted along it
T25 sequence (P41145 whole entry K200A): as the sequence (P41145 whole entry Q115N) above, with N115Q, K200A counted along it
T32 sequence (P41145 whole entry K200A): as the sequence (P41145 whole entry Q115N) above, with N115Q, K200A counted along it
T22 sequence (P41145 whole entry Y139L): as the sequence (P41145 whole entry Q115N) above, with N115Q, Y139L counted along it
T12 sequence (P41145 whole entry L253A): as the sequence (P41145 whole entry Q115N) above, with N115Q, L253A counted along it
T33 sequence (P41145 whole entry L253A): as the sequence (P41145 whole entry Q115N) above, with N115Q, L253A counted along it
T34 sequence (P41145 whole entry N141A): as the sequence (P41145 whole entry Q115N) above, with N115Q, N141A counted along it
T26 sequence (P41145 whole entry K227A): as the sequence (P41145 whole entry Q115N) above, with N115Q, K227A counted along it
T24 sequence (P41145 whole entry D155A): as the sequence (P41145 whole entry Q115N) above, with N115Q, D155A counted along it
T23 sequence (P41145 whole entry Y320L): as the sequence (P41145 whole entry Q115N) above, with N115Q, Y320L counted along it
T27 sequence (P41145 whole entry Q115N): as the sequence (P41145 whole entry Q115N) above
T30 sequence (P41145 whole entry D334A): as the sequence (P41145 whole entry Q115N) above, with N115Q, D334A counted along it
T31 sequence (P41145 whole entry E297A): as the sequence (P41145 whole entry Q115N) above, with N115Q, E297A counted along it
T29 sequence (P41145 whole entry D105A): as the sequence (P41145 whole entry Q115N) above, with D105A, N115Q counted along it
T2 sequence (P41145 whole entry D105A): as the sequence (P41145 whole entry Q115N) above, with D105A, N115Q counted along it

How did the Emax% (human KOR (GoA) [1]) turn out when `CN(C(=O)/C=C/c1ccoc1)[C@@H]1CC[C@@]2(O)[C@H]3Cc4ccc(O)c5c4[C@@]2(CCN3CC2CC2)[C@H]1O5` [Nalfurafine, nalfurafine] was run?
Its Emax% is 98.31%.

What about the “FC vs wild type” value (human KOR (GoA) [1]) of the same compound?
The value was 1.

And the Emax (human KOR (GoA) [1]; HEK-293T)?
Its Emax is 98.7%.

What about the “FC vs wild type” value (human KOR (GoA) [2]) of the same compound?
The value was 110.

And the “FC vs wild type” value (human KOR (GoA) [3])?
Its value is 9 and < 10.

What about the Emax (human KOR (GoA) [3]; HEK-293T) of the same compound?
The Emax was 95.7%.

What about the “FC vs wild type” value (human KOR (GoA) [4]) of the same compound?
The value was 132.

And the Emax (human KOR (GoA) [4]; HEK-293T)?
The Emax was 108%.

What about the “FC vs wild type” value (human KOR (GoA) [5]) of the same compound?
The value was 18.

And the Emax (human KOR (GoA) [5]; HEK-293T)?
The Emax was 96.9%.

What about the “FC vs wild type” value (human KOR (GoA) [6]) of the same compound?
Its value is 2.

What about the Emax (human KOR (GoA) [6]; HEK-293T) of the same compound?
Its Emax is 98.9%.

What about the “FC vs wild type” value (human KOR (GoA) [7]) of the same compound?
The value was 40.

What about the Emax (human KOR (GoA) [7]; HEK-293T) of the same compound?
The Emax was 67.4%.

What about the “FC vs wild type” value (human KOR (GoA) [8]) of the same compound?
Its value is 13.

What about the Emax (human KOR (GoA) [8]; HEK-293T) of the same compound?
The Emax was 89.5%.

And the “FC vs wild type” value (human KOR (GoA) [9])?
Its value is 20.

What about the Emax (human KOR (GoA) [9]; HEK-293T) of the same compound?
Its Emax is 101%.

What about the “FC vs wild type” value (human KOR (GoA) [10]) of the same compound?
Its value is 8.

What about the Emax (human KOR (GoA) [10]; HEK-293T) of the same compound?
The Emax was 91.4%.

What about the “FC vs wild type” value (human KOR (GoA) [11]) of the same compound?
The value was 1.

And the Emax (human KOR (GoA) [11]; HEK-293T)?
Its Emax is 107%.

And the Emax (human KOR (GoA) [12])?
Its Emax is 109%.

And the “FC vs wild type” value (human KOR (GoA) [13])?
The value was 9.

What about the Emax (human KOR (GoA) [13]; HEK-293T) of the same compound?
Its Emax is 101%.

What about the “FC vs wild type” value (human KOR (GoA) [14]) of the same compound?
Its value is 100.

What about the Emax (human KOR (GoA) [14]; HEK-293T) of the same compound?
Its Emax is 91.3%.

What about the “FC vs wild type” value (human KOR (GoA) [15]) of the same compound?
Its value is 4.

What about the Emax (human KOR (GoA) [15]; HEK-293T) of the same compound?
Its Emax is 103%.

And the “FC vs wild type” value (human KOR (GoA) [16])?
Its value is 24.

And the Emax (human KOR (GoA) [16]; HEK-293T)?
Its Emax is 65.8%.

What about the “FC vs wild type” value (human KOR (GoA) [17]) of the same compound?
Its value is 6 and ~10.

And the Emax (human KOR (GoA) [17]; HEK-293T)?
Its Emax is 86.9%.

And the “FC vs wild type” value (human KOR (GoA) [18])?
The value was 14 and 10.

What about the “FC vs wild type” value (human KOR (GoA) [19]) of the same compound?
The value was 135.

What about the Emax (human KOR (GoA) [19]; HEK-293T) of the same compound?
The Emax was 107%.

And the “FC vs wild type” value (human KOR (GoA) [20])?
Its value is 479.

What about the Emax (human KOR (GoA) [20]; HEK-293T) of the same compound?
The Emax was 99.5%.

What about the “FC vs wild type” value (human KOR (GoA) [21]) of the same compound?
Its value is 1.

What about the Emax (human KOR (GoA) [21]; HEK-293T) of the same compound?
The Emax was 99.7%.

What about the “FC vs wild type” value (human KOR (GoA) [22]) of the same compound?
Its value is 3.

And the Emax (human KOR (GoA) [23])?
Its Emax is 75.8%.

What about the Emax (human KOR (GoB) [24]) of the same compound?
The Emax was 99%.

What about the Emax (human KOR (GoB) [25]) of the same compound?
Its Emax is 98.3%.

What about the Emax (human KOR (GoB) [26]) of the same compound?
The Emax was 94.3%.

What about the Emax (human KOR (GoB) [27]) of the same compound?
The Emax was 80.5%.

And the Emax% (human KOR (Gustducin) [28])?
The Emax% was 65%.

What about the Emax (human KOR (Gustducin) [28]; HEK-293T) of the same compound?
The Emax was 65.6%.

What about the Emax (human KOR (Gustducin) [29]) of the same compound?
Its Emax is 70.2%.

What about the Emax (human KOR (Gustducin) [30]) of the same compound?
Its Emax is 100%.

What about the Emax (human KOR (Gustducin) [31]) of the same compound?
Its Emax is 73.1%.

What about the Emax (human KOR (Gustducin) [32]) of the same compound?
Its Emax is 75.7%.

What about the Emax (human KOR (Gustducin) [33]) of the same compound?
The Emax was 61.4%.

And the Emax (human KOR (Gustducin) [34])?
The Emax was 79.1%.

And the Emax (human KOR (Gustducin) [35])?
The Emax was 62.9%.
